Results reported in patent publication US8193384B2, “Polymer-bound phosphitylating reagents for the synthesis of organophosphorus compounds” (priority 2005, dated 2012).

Experiments:
[1] = tested on: complementary chains of modified and unmodified ODNs; assay: Thermal denaturation studies (UV melting, Tm) of ODN duplexes; format: binding; details: for Tm: modified oligomer bound to its complementary unmodified oligomer
[2] = tested on: mismatched 12-mer modified or unmodified ODNs of 3′-d(CCCCCCCCCCCC); assay: Base-discriminating properties: UV melting with mismatched ODNs; format: binding; details: with mismatched 12-mer modified or unmodified 3′-d(CCCCCCCCCCCC)

In the case of “Modified d(AAAAAAAAAAAA) (SEQ ID NO: 1) Containing Diphosphodiester Internucleotide Linkage (DNA, backbone not given here; contains diphosphodiester internucleotide linkage(s), further chemistry not fully specified) [Compound 13]”, the Tm [1] is reported as 39.7 °C and the melting transition [2] is reported as “no melting transition was observed”.

In the case of “Modified d(TATATATATATA) (SEQ ID NO: 6) Containing Diphosphodiester Internucleotide Linkage (DNA, backbone not given here; contains a diphosphodiester internucleotide linkage) [Compound 18]”, the ΔTm [1] is reported as “+3.2 °C”.

In the case of “Modified d(GGGGGGGGGGGG) (SEQ ID NO: 4) Containing Diphosphodiester Internucleotide Linkage [Compound 16]”, the “binding affinity towards modified 3′-d(CCCCCCCCCCCC) compared with unmodified 3′-d(CCCCCCCCCCCC)” value [1] is reported as “higher binding affinity”.

With “Modified d(TTTTTTTTTTTT) (SEQ ID NO: 2) Containing Diphosphodiester Internucleotide Linkage (diphosphodiester internucleotide linkage) [Compound 14]” the Tm [1] was 39.5 °C.

For “Modified d(ATATATATATAT) (SEQ ID NO: 5) Containing Diphosphodiester Internucleotide Linkage (DNA, backbone not given here; contains a diphosphodiester internucleotide linkage) [Compound 17]”, the ΔTm [1] was “+1.8 °C”.
